This is an account of results in patent publication US7893284B2 (Sterix Limited, priority 2004, dated 2011).

For assay [1], the system named is Tubulin. As to the kind of experiment: Inhibition of taxol-induced microtubule polymerization (turbidity at 350 nm). The class given is biochemical. Conditions: 20 μM, tubulin 1 mg/ml, FIG. 3. As to the method:
The ability of drugs to inhibit taxol-induced polymerisation of tubulin was measured by turbidity at 350 nm. Tubulin (Cryoskeleton Inc., Denver, Colo.), at a final concentration of 1 mg/ml was incubated at 32° C. in G-PEM buffer [80 mM piperazine-N,N′-bis (2-ethane sulfonic acid) sequisodium salt, 1 mM MgCl2, 1 mM EGTA and 1 mM GTP (pH 6.8)] in the presence of taxol with or without estrone derivatives [20 μM].
STX641 is thought to act as an anti-microtubule agent, i.e. to disrupt microtubule function. To show this, tubulin was incubated in the presence of taxol (a compound known to promote tubulin polymerisation). Taxol induced efficient in vitro microtubule assembly as reflected in the increase in turbidity as measured at 350 nm.

Assay [2] relates to A2780 Ovarian Cancer Cells. In words: Cell cycle arrest and annexin V FACs analysis, A2780. The class given is cell-based. To be noted: 1 μM, FIG. 12. The source says:
For controls, there is no cell surface expression as indicated by a lack of a peak in the M2 region.

The test system of assay [3] is MCF-7 cells. In words: Cell proliferation, microtiter plate assay (Cell Titer 96), MCF-7. The class given is cell-based. Conditions: Homo sapiens, MCF7; read-out: IC50 (μM) MCF-7 Breast Cancer Cells. On the procedure:
(§1) The effect of drugs on the proliferation of cells was measured using a microtiter plate assay (Cell Titer 96 proliferation assay, Promega, Hampshire, UK).

Assay [4] relates to MDA MB 231 Cells. As to the kind of experiment: Inhibition of glucose uptake, MDA MB 231. The class given is cell-based. Conditions: 15 min, 2-deoxy-D-[1-3H]glucose. As to the method: To measure the inhibition of glucose uptake into cells, cells were plated into 12-well multi-well plates and grown to confluence. Cells were washed with phosphate-buffered saline (PBS) and incubated for 15 min in incubation buffer containing 1 μCi 2-deoxy-D-[1-^3H]glucose (NEN-Dupont, UK) per well in the absence or presence of potential inhibitors (0.1-10 μM). Uptake was terminated by washing the cells in cold (4° C.) PBS. The cells were solubilized in. Triton-X in 0.01M sodium hydroxide and processed for liquid scintillation counting (Singh et al., Molecular and Cellular Endocrinology, 160: 61-66, 2000).

Assay [5] concerns human umbilical vein endothelial cells (HUVECs). In words: Tubule formation, Angiogenesis kit, co-culture of HUVECs and dermal fibroblasts. The class given is cell-based. As to the method:
The effects of drugs on tubule formation (measured as a marker of their anti-angiogenic potential) was assessed using an Angiogenesis kit (TCS-Cellworks Ltd (Bucks, UK). For this, human umbilical vein endothelial cells (HUVECs) were cultured in a 24-well plate within a matrix of human diploid fibroblasts of dermal origin. The co-cultured cells were incubated throughout the experiment at 37° C. under 5% CO2 in a humidified incubator. On day 1, the culture medium was removed and replaced with medium containing the drugs under investigation. On days 4, 7 and 9, the medium was replaced with fresh medium containing the drugs under investigation. On day 11, the cells were washed with PBS and 70% ethanol (1 ml) added to each well for 30 min to fix the cells. After fixation, the cells were washed with blocking buffer (1 ml PBS+1% bovine serum albumin, Sigma, UK) and stained with either von Willebrand's factor or CD31. The extent of tubule formation was quantified by manual scoring or by computer analysis. Images were captured using a Kodak DC120 digital camera. In addition, details of changes in tubule formation induced by drugs were also recorded by high definition scanning of plates with some of the scans being presented as Photoshop processed images.
In this assay, the ability of STX641 (and related compounds) to act as an inhibitor of angiogenesis was examined using a co-culture of HUVECs and dermal fibroblasts. In this system, the endothelial cells initially form small islands within the fibroblast matrix. They subsequently proliferate and enter a migratory phase during which they move through the matrix to form thread-like tubule structures. These coalesce to form a network of anastomosing tubules. In FIG. 5, for untreated (control) co-cultures of HUVECs and dermal fibroblasts, the thread-like nature of the extensive tubule network is clearly visible. […] In FIG. 6, plates have been recorded by high definition scanning and also processed to give pixalated images.

In assay [6] the test system is MCF-7 Breast Cancer Cells. In words: Flow cytometric cell cycle analysis, MCF-7. The class given is cell-based. Conditions: 500 nM; for G2/M arrest (cells in G2/M): 8 h, control 16%; for cells G2/M arrested: control 28%. As to the method: Flow cytometric cell cycle analysis was performed on 40% confluent populations of MCF-7s with 500 nM of compound.
For orientation: A flow cytometer gives signals particle by particle.

For assay [7], the system named is PC3 Prostate Cancer Cells. In words: Cell proliferation IC50, PC3. The class given is cell-based. On the procedure:
as §1

Assay [8] deals with Human Umbilical Vein Cells. As to the kind of experiment: 96 well plate MTS proliferation assay, Human Umbilical Vein Cells. The class given is cell-based. To be noted: read-out: mean inhibition of three wells +/-Sds. The source says: Human Umbilical Vein Cells; 96 well plate MTS proliferation assay, mean inhibition of three wells +/−Sds.
On the technique in general: Formazan colour is commonly taken as a measure of viable cells.

For assay [9], the system named is Human Dermal Fibroblasts. In words: 96 well plate MTS proliferation assay, Human Dermal Fibroblasts. The class given is cell-based. Conditions: Fibroblast, read-out: mean inhibition of three wells +/-Sds. The text has this: Human Dermal Fibroblasts; 96 well plate MTS proliferation assay, mean inhibition of three wells +/−Sds.

With `COc1cc2c(cc1OS(N)(=O)=O)CCC1C2CC[C@@]2(C)C1CC[C@@H]2CC#N` (stereo in doubt) [Compound 33, Sulfamic acid 17-cyanomethyl-2-methoxy-13-methyl-7,8,9,11,12,13,14,15,16,17-decahydro-6H-cyclopenta[a]phenanthren-3-yl ester], in [1], the “inhibition of taxol-induced polymerisation of tubulin” value is “effectively blocked tubulin assembly”. Besides, the G2/M arrest entry is recorded as “G2/M arrest” in assay [2] (24 hours) and “still G2/M-arrested” in assay [6] (48 h). For the same compound, the “annexin V staining (apoptotic marker), FACs” value in [2] is reported as “marked increase in staining”. In addition, the IC50 – broadly, the point on the concentration scale where inhibition reaches its midpoint – is 0.15 µM in assay [3] and 0.05 µM in assay [7]. Moreover, the “% Inhibition of Glucose Uptake MDA MB 231 Cells” value in [4] is reported as 60%. In addition, in [5] (0.05 μM and 0.1 μM, FIG. 7), the “inhibition of tubule formation quantified by computer analysis” value is on record as “completely inhibited tubule formation”. For the same compound, the “effect on tubule formation” value in [5] (0.05 μM, FIG. 6) is listed as “completely abolish tubule formation”; in assay [5] (0.1 μM, FIG. 5), “completely destroyed”. Moreover, the “G2/M arrest (cells in G2/M)” value in assay [6] came out at 27%. The “cells G2/M arrested” value in assay [6] (24 h) is reported as 68%. In assay [6] (24 h, decrease from 30%), this compound returned a S-phase population of 9%. This compound had a G1 population in assay [6] (24 h, decrease from 37%) of 15%. Further, the “apoptotic sub-G1 population” value in assay [6] (48 h) is reported as “no significant increase”.
In the case of `COc1cc2c(cc1OS(N)(=O)=O)CCC1C2CC[C@@]2(C)C1CC[C@@H]2OS(N)(=O)=O` (stereo partly shown) [STX 140, reference compound], the inhibition at 0.05 µM in assay [8] (0.05 μM) came out at 7%; in [9] (0.05 μM), 0%. Moreover, the inhibition at 0.1 µM in [8] (0.10 μM) worked out at 18%; in assay [9] (0.10 μM), 2%. Also, the inhibition at 1 µM stood at 59% in assay [8] (1.00 μM) and 9% in [9] (1.00 μM). In addition, the inhibition at 5 µM stood at 49% in assay [8] (5.00 μM) and 18% in assay [9] (5.00 μM). For the same compound, the values for the IC50 in [3] and in assay [7] were 0.25 µM and 0.27 µM, respectively. The “% Inhibition of Glucose Uptake MDA MB 231 Cells” value in assay [4] stood at 77%. The “effect on tubule formation” value in [5] (0.05 μM, FIG. 6) is listed as “completely abolish tubule formation”. In assay [6], the “G2/M arrest (cells in G2/M)” value is 27%. Also, the “sub-G1 population (indicative of apoptosis)” value in assay [6] (24 h, control 2%) worked out at 36%. For the same compound, the “cells G2/M arrested” value in assay [6] (24 h) stood at 28%. For the same compound, the “apoptotic sub-G1 population” value in [6] (48 h) is given as “increasing population of sub-G1 cells”.
